Eight compounds from patent publication US20230322767A1, “ARYL SUBSTITUTED PYRROLO-PYRIDINONES AND THERAPEUTIC USES THEREOF” (Bayer Aktiengesellschaft, priority 2020, published 2023) can be followed below.

Common to all, as to type: biochemical
The target in one test is CSNK1D (Homo sapiens (Human), UniProt P48730). Briefly: CSNK1D Assay (ADP-Glo, 1 μM ATP). The note with it: median, read-out: CSNK1D IC50 [mol/l] (median). The method, boiled down:
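Enzyme preincubated with compound 15 min at 22° C in 50 mM HEPES pH 7.5 buffer with 10 mM MgCl2, 1 mM DTT; kinase reaction run at 1 μM ATP with biotinylated peptide substrate. ADP formed was detected by ADP-Glo luminescence as the measure of activity.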

Test [1] addresses wild-type Epidermal Growth Factor Receptor (EGFR) (Homo sapiens (Human), UniProt P00533). Briefly: WT-EGFR Kinase Assay (TR-FRET, 2 mM ATP). Put shortly:
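GST-tagged human EGFR (R669–A1210, Sf9-expressed) preincubated 15 min at 22° C with compound in pH 7.0 Hepes/MgCl2 buffer, then reacted at 2 mM ATP with a biotinylated peptide substrate. Phosphorylation detected by TR-FRET (streptavidin-XL665, Tb-cryptate anti-phosphotyrosine) as the 665/620 nm emission ratio.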
A general note: TR-FRET usually uses a lanthanide donor and a delayed reading to cut background.

For the next test, the target named is CSNK1A1 (Homo sapiens (Human), UniProt P48729). Put plainly: CSNK1A1 Assay 2 (ADP-Glo, 1 μM ATP). As to conditions: median, read-out: CSNK1A1 Assay 2 IC50 [mol/l] (median). The method, boiled down: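 Enzyme (~0.0375 ng/μL) preincubated 15 min at 22° C with compound in HEPES pH 7.5 buffer, then reacted with 1 μM ATP and biotin-Ahx-KRRRAL-pS-VASLPGL peptide. ADP product measured by ADP-Glo luminescence after 1 h ATP depletion and 1 h detection at 22° C.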
Chain of CSNK1A1 (P48729 whole entry): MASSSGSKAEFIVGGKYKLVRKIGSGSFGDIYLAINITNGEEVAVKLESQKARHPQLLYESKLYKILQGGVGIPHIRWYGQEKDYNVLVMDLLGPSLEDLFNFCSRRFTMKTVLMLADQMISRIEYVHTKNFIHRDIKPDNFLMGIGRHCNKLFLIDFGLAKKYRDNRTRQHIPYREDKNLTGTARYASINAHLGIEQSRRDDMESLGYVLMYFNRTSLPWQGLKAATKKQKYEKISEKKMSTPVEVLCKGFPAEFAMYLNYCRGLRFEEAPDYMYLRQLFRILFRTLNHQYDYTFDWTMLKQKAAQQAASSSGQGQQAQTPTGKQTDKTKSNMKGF
(In ADP-Glo the light output rises with the ADP produced.)

[2] abbreviates: read-out: EGFR Wildtyp 2 mM ATP IC50 [mol/l] (median), median or individual measurements.

Read-outs that look alike come from different tables or passages of the source.

Chain of wild-type Epidermal Growth Factor Receptor (EGFR) (P00533 669-1210): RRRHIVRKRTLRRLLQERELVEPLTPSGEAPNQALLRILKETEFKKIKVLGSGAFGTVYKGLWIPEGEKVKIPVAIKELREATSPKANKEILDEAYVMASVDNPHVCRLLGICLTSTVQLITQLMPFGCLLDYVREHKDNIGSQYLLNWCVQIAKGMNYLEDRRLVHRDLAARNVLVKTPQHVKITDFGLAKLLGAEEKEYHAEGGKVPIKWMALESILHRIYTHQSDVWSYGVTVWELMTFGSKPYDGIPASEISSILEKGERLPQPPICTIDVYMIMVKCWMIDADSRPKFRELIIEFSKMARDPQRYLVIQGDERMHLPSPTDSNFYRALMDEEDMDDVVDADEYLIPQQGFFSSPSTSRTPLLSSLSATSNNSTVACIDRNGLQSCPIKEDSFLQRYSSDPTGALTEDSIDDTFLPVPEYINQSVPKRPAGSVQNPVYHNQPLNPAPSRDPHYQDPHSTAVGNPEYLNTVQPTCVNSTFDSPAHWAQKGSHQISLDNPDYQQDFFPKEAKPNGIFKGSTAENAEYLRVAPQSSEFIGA
Chain of CSNK1D (P48730 whole entry): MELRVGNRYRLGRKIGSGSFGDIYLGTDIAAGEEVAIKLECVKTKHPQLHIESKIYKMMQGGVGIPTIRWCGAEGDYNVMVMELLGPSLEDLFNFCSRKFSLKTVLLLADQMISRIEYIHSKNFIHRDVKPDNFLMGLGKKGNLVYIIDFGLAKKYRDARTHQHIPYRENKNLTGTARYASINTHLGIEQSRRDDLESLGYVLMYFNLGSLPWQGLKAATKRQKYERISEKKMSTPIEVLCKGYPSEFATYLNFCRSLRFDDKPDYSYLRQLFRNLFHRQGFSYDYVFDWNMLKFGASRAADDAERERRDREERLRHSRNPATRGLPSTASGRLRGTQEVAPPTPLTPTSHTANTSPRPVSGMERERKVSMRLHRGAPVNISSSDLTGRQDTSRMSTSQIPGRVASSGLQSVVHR

Take `COCCNC(=O)c1ccc(CC(=O)Nc2cc(-c3[nH]c4c(c3-c3ccc(F)cc3)C(=O)N(C)CC4)ccn2)cc1` [Example 140, 4-[2-({4-[3-(4-fluorophenyl)-5-methyl-4-oxo-4,5,6,7-tetrahydro-1H-pyrrolo[3,2-c]pyridin-2-yl]pyridin-2-yl}amino)-2-oxoethyl]-N-(2-methoxyethyl)benzamide]: the IC50 at CSNK1D is 1.8 nM; in test [1] (setting [2]), over 20000 nM; at CSNK1A1, 1.6 nM.
Consider `COCCN(C)C(=O)c1ccc(CC(=O)Nc2cc(-c3[nH]c4c(c3-c3ccc(F)cc3)C(=O)N(C)CC4)ccn2)cc1` [Example 141, 4-[2-({4-[3-(4-fluorophenyl)-5-methyl-4-oxo-4,5,6,7-tetrahydro-1H-pyrrolo[3,2-c]pyridin-2-yl]pyridin-2-yl}amino)-2-oxoethyl]-N-(2-methoxyethyl)-N-methylbenzamide], for which the figures for the IC50 (on CSNK1D; in test [1] (setting [2]); at CSNK1A1) were 2.7 nM, over 20000 nM and 3.6 nM, respectively.
Take `COCCNC(=O)c1ccc(CC(=O)Nc2cc(-c3[nH]c4ccn(C)c(=O)c4c3-c3ccc(F)cc3)ccn2)cc1` [Example 142, 4-[2-({4-[3-(4-fluorophenyl)-5-methyl-4-oxo-4,5-dihydro-1H-pyrrolo[3,2-c]pyridin-2-yl]pyridin-2-yl}amino)-2-oxoethyl]-N-(2-methoxyethyl)benzamide]: the IC50 on CSNK1D is 3.8 nM; in test [1] (setting [2]), over 20000 nM; on CSNK1A1, 2.7 nM.
On to `COCCN(C)C(=O)c1ccc(CC(=O)Nc2cc(-c3[nH]c4ccn(C)c(=O)c4c3-c3ccc(F)cc3)ccn2)cc1` [Example 143, 4-[2-({4-[3-(4-fluorophenyl)-5-methyl-4-oxo-4,5-dihydro-1H-pyrrolo[3,2-c]pyridin-2-yl]pyridin-2-yl}amino)-2-oxoethyl]-N-(2-methoxyethyl)-N-methylbenzamide], for which the figures for the IC50 (on CSNK1D; in test [1] (setting [2]); on CSNK1A1) were 2.7 nM, over 20000 nM and 4 nM, respectively.
Turning to `CN1CCc2[nH]c(-c3ccnc(NC(=O)Cc4ccc(C(=O)N5CCNCC5)cc4)c3)c(-c3ccc(F)cc3)c2C1=O` [Example 144, N-{4-[3-(4-fluorophenyl)-5-methyl-4-oxo-4,5,6,7-tetrahydro-1H-pyrrolo[3,2-c]pyridin-2-yl]pyridin-2-yl}-2-[4-(piperazine-1-carbonyl)phenyl]acetamide], the IC50 at CSNK1D is 3 nM; in test [1] (setting [2]), 3620 nM; on CSNK1A1 it was 2 nM.
`Cn1ccc2[nH]c(-c3ccnc(NC(=O)Cc4ccc(F)cc4)c3)c(-c3ccccn3)c2c1=O` [Example 146, 2-(4-fluorophenyl)-N-{4-[5-methyl-4-oxo-3-(pyridin-2-yl)-4,5-dihydro-1H-pyrrolo[3,2-c]pyridin-2-yl]pyridin-2-yl}acetamide]: the figures for the IC50 (on CSNK1D; in test [1] (setting [2]); at CSNK1A1) were 4.4 nM, over 20000 nM and 3.3 nM, respectively.
As to `CC(C(=O)Nc1cc(-c2[nH]c3c(c2-c2ccccc2)C(=O)N(C)CC3)ccn1)c1ccncc1` (stereo not drawn) [Example 154, N-[4-(5-methyl-4-oxo-3-phenyl-4,5,6,7-tetrahydro-1H-pyrrolo[3,2-c]pyridin-2-yl)pyridin-2-yl]-2-(pyridin-4-yl)propanamide], the IC50 at CSNK1D was 6 nM; in test [1] (EGFR Wildtyp 2 mM ATP IC50 [mol/l] (median), median or individual measurements), over 20000 nM; on CSNK1A1, 5.1 nM.
As to `O=C(Cc1ccc(F)cc1)Nc1cc(-c2[nH]c3ccn(C4CC4)c(=O)c3c2-c2ccccc2)ccn1` [Example 159, N-[4-(5-cyclopropyl-4-oxo-3-phenyl-4,5-dihydro-1H-pyrrolo[3,2-c]pyridin-2-yl)pyridin-2-yl]-2-(4-fluorophenyl)acetamide], the IC50 at CSNK1D is 1.6 nM; in test [1] (setting [2]), over 20000 nM; at CSNK1A1, 0.96 nM.
